{"source": "patent US5304474A", "about": "“Hydrophobic peptide esters and amides” (Board of Regents, The University of Texas System, priority 1991, dated 1994)", "key": {"[1]": {"tested_on": "mononuclear phagocytes (MP)", "assay": "Loss of MP from PBM, anti-MP (63D3) staining", "assay_type": "cell-based, human", "conditions": "15 minute exposure, 2 hours at 37° C. (FIG. 6)", "protocol": "(§1) In the experiments depicted in FIG. 6, freshly isolated PBM (2.5×10^6 /ml PBS and 1g/l glucose) were incubated at room temperature with varying concentrations of Leu-Leu-OMe. After a 15 minute exposure to this compound, the cells were washed, incubated for 2 hours at 37° C. and then assessed for the percentage of remaining viable cells which were stained by anti-MP or anti-NK monoclonal antibodies. Preincubation with greater than 25-50 micromola Leu-Leu-OMe led to loss of NK cells.\n(§2) Anti-MP monoclonal antibodies (63D3) and anti-NK monoclonal antibodies (leu 11b) were obtained from Becton Dickinson Monoclonal Center, lnc., Mountain View, Cal. The antibody staining and Fluorescence Activated Cell Sorter (FACS) procedure was that of Rosenberg et al. (1981) (J. Immunol. V 126, p 1473). Data are expressed as percent of antibody staining in control cells (mean±SEM, n=4)."}, "[2]": {"tested_on": "graft vs. host disease (GVHD)", "assay": "Murine bone marrow transplantation, donor inoculum treated in vitro: survival and GVHD", "assay_type": "in vivo, B6→B6D2F1 mice", "protocol": "Female, 8-16-wk-old, C57BL/6J (B6) and (C57BL/6J x DBA/2J)F1 mice (B6D2F1) were used as donors and recipients, respectively. For some experiments B6 donors were […] 70×10^6 cells/ml either in phosphate-buffered saline (PBS) or in Leu-Leu-OMe dissolved in PBS. Leu-Leu-OMe was synthesized from leucyl-leucine as previously described (10). After a 15 min incubation at room temperature, the cells were washed once, suspended in Hanks' balanced salt solution, counted, and infused via a lateral tail vein into irradiated (950 cGy) F1 recipients.\nSurvival times were measured from the day of transplantation to the day of death. Deaths occurring within 8 d of transplantation were considered to be the result of radiation-induced gastroenteritis and were excluded. The nonparametric Mann-Whitney test was used to determine whether the median survival times (MST) differed between groups (14).\nOrgans of recipient mice were fixed in 10% buffered formalin. Sections were stained with Hematoxylin and Eosin."}, "[3]": {"tested_on": "renal cell carcinoma line, Currie", "assay": "51Cr release toxicity assay"}, "[4]": {"tested_on": "B6 spleen cells (NK, allospecific cytotoxic T cells)", "assay": "Cytotoxic function of B6 spleen cells after incubation", "assay_type": "cell-based, murine"}, "[5]": {"tested_on": "T4 enriched T cells", "assay": "51Cr release toxicity assay", "assay_type": "cell-based, human", "protocol": "(§3) In some experiments, toxicity of Leu-Leu-OMe for a variety of cell populations was assessed by ^51 Cr release In assays where cells obtained from suspension culture were to be used, cells were labeled with Na2^51 CrO4 (ICN, Plainview, N.Y.) for 60-90 minutes at 37° C. and then washed three times. Cells were then suspended in PBS (2.5×10^6 /ml) and incubated in microtiter plates, 50 microL/well with indicated concentrations of Leu-Leu-OMe for 15 minutes at room temperature. […] Following ^51 Cr labeling, wells were thoroughly washed and varying concentrations of Leu-Leu-OMe added in 50 microL PBS and the plates incubated for 15 minutes at room temperature.\n(§4) Following such initial serum-free incubations, 200 microL/well of medium RPMI containing 10% FBS were added and the plates incubated for another 4 hours prior to removal of 100 microliters of supernatant. Radioactivity in the supernatant was measured in an auto-gamma scintillation spectrometer (Packard Instrument Co., Downers Grove, Ill.). The percent specific release was calculated from the formula: [formula] in which maximal release refers to cpm obtained in wells containing 50% lysing agent (American Scientific Products, McGraw Park, Ill.) and spontaneous release refers to cpm released by cells incubated in control medium in the absence of Leu-Leu-OMe or the lysing agent.\n(§5) In developing the data expressed in FIG. 7, cells (2.5×10^6 /ml) were exposed to the indicated concentrations of Leu-Leu-OMe for 15 minutes at room temperature, then specific ^51 Cr release during the next four hours was assessed."}, "[6]": {"tested_on": "T8-enriched population", "assay": "51Cr release toxicity assay", "assay_type": "cell-based, human", "protocol": "as §3, §4, §5"}, "[7]": {"tested_on": "MP-enriched adherent cells (AC)", "assay": "51Cr release toxicity assay", "assay_type": "cell-based, human", "protocol": "as §3, §4, §5"}, "[8]": {"tested_on": "NK cells", "assay": "Loss of NK cells from PBM, anti-NK (leu 11b) staining", "assay_type": "cell-based, human", "conditions": "15 minute exposure, 2 hours at 37° C. (FIG. 6)", "protocol": "as §1, §2"}, "[9]": {"tested_on": "nylon wool non-adherent lymphocytes (NAC)", "assay": "51Cr release toxicity assay", "assay_type": "cell-based, human", "conditions": "25 to 50 micromolar", "protocol": "as §3\nas §4, with “agent. Only experiments in which spontaneous release was […] were used for subsequent data interpretation.” for “agent.”\nas §5, with “assessed. Data for the EBV transformed lines JM.6, SDL-G2, D8-219, and SM.4, respectively, are shown in order from top to bottom.” for “assessed.”"}, "[10]": {"tested_on": "PBM", "assay": "51Cr release toxicity assay", "assay_type": "cell-based, human", "conditions": "15 minutes exposure, 4 hour release (FIG. 7)", "protocol": "as §3\nas §4, with “agent. Only experiments in which spontaneous release was […] were used for subsequent data interpretation.” for “agent.”\nas §5, with “assessed. Data for the EBV transformed lines JM.6, SDL-G2, D8-219, and SM.4, respectively, are shown in order from top to bottom.” for “assessed.”"}, "[11]": {"tested_on": "human umbilical vein endothelial cells", "assay": "51Cr release toxicity assay"}}, "note": "“Also recorded” adds a separate entry of the source."}
{"compound": "COC(=O)[C@H](CC(C)C)NC(=O)[C@@H](N)CC(C)C", "note": "[Leu-Leu-OMe, L-leucyl-L-leucine methyl ester]", "values": [{"measurement": "loss of MP from PBM, in words", "setting": "[1]", "result": "did not deplete MP from PBM; also recorded: higher concentrations of Leu-Leu-OMe caused loss of MP"}, {"measurement": "GVHD-mediated tissue injury", "setting": "[2]; 25×10^6 cells treated with 250 micro-M", "result": "had no evidence of cutaneous GVHD"}, {"measurement": "GVHD-mediated tissue injury", "setting": "[2]; 25×10^6 donor cells treated with 125 micro-M", "result": "manifested evidence of acute GVHD, although at somewhat diminished intensity"}, {"measurement": "GVHD-mediated tissue injury", "setting": "[2]; 50×10^6 treated cells", "result": "manifested acute cutaneous GVHD"}, {"measurement": "mice surviving >90 d (long-term survivors)", "setting": "[2]; immune donors, 37×10^6 donor cells treated with 250 micro-M", "result": "three of nine"}, {"measurement": "median survival time (MST)", "setting": "[2]; immune donors, 37×10^6 donor cells treated with 250 micro-M, untreated 11 d", "result": 49, "unit": "days"}, {"measurement": "median survival time (MST)", "setting": "[2]; naive donors, 25×10^6 donor cells treated with 125 micro-M, untreated 19 d", "result": 41.5, "unit": "days"}, {"measurement": "survival of all recipients", "setting": "[2]; naive donors, 25×10^6 donor cells treated with 250 micro-M, untreated MST 19 d", "result": "> 120", "unit": "days"}, {"measurement": "survival of all recipients", "setting": "[2]; naive donors, 50×10^6 donor cells treated with 250 micro-M, untreated MST 14 d", "result": "> 200", "unit": "days"}, {"measurement": "51Cr release", "setting": "[3]", "result": "no significant Leu-Leu-OMe induced ^51 Cr release"}, {"measurement": "subsequent proliferative capacity", "setting": "[3]; 500 micromolar", "result": "had no discernible effect on subsequent proliferative capacity"}, {"measurement": "Leu--Leu--OMe Sensitivity (LD50)", "setting": "[3]; Renal Cell Carcinoma", "result": "> 500", "unit": "micro-M"}, {"measurement": "NK function of B6 spleen cells", "setting": "[4]; 100 micro-M", "result": "complete loss of NK function"}, {"measurement": "generation of allospecific cytotoxic T cells", "setting": "[4]; 100 micro-M", "result": "only partial reduction of the generation of allospecific cytotoxic T cells"}, {"measurement": "cells with cytotoxic potential that remain", "setting": "[4]; single treatment with 250 micro-M", "result": "< 5", "unit": "%"}, {"measurement": "51Cr release", "setting": "[5]; 1000 micromolar", "result": "caused minimal ^51 Cr release"}, {"measurement": "Leu--Leu--OMe Sensitivity (LD50)", "setting": "[5]; T4 Cells", "result": "> 500", "unit": "micro-M"}, {"measurement": "51Cr release", "setting": "[6]; N-SRBC positive cells depleted of OKT4 positive cells", "result": "produced high levels of ^51 Cr release"}, {"measurement": "Leu--Leu--OMe Sensitivity (LD50)", "setting": "[6]; T-8 Cells", "result": 250, "unit": "micro-M"}, {"measurement": "51Cr release", "setting": "[7]; 25-50 micromolar", "result": "minimal ^51 Cr release"}, {"measurement": "Leu--Leu--OMe Sensitivity (LD50)", "setting": "[7]; M--phi", "result": 75, "unit": "micro-M"}, {"measurement": "preincubation concentration leading to loss of NK cells", "setting": "[8]", "result": "25 to 50", "unit": "µM"}, {"measurement": "51Cr release", "setting": "[9]", "result": "small but significant ^51 Cr release"}, {"measurement": "concentration for maximal achievable 51Cr release", "setting": "[10]", "result": "greater than 100 micromolar"}, {"measurement": "concentration giving detectable 51Cr release", "setting": "[10]", "result": "25 to 50", "unit": "µM"}, {"measurement": "51Cr release", "setting": "[11]", "result": "no significant Leu-Leu-OMe induced ^51 Cr release"}, {"measurement": "subsequent proliferative capacity", "setting": "[11]; 500 micromolar", "result": "had no discernible effect on subsequent proliferative capacity"}, {"measurement": "Leu--Leu--OMe Sensitivity (LD50)", "setting": "[11]; Endothelial Cells", "result": "> 500", "unit": "micro-M"}]}
